Like-named read-outs stand apart in the source and are kept apart here.
How the values were obtained:
OVCAR-3 = test: Inhibition of proliferation of ovarian cancer cell line OVCAR-3 (CellTiter Glo); assay type: cell-based; conditions: read-out: OVCAR-3 IC50
HCC1806 = test: Inhibition of proliferation of breast cancer cell line HCC1806 (CellTiter Glo); assay type: cell-based; conditions: read-out: HCC1806 IC50
[1] = Pharmacokinetic study in rats
Procedure: (§1) Instruments: XEVO TQ-S LC/MS instrument was produced by Waters. All measurement data were collected and processed by Masslynx V4.1 software, and the data were calculated and processed by Microsoft Excel. The statistical moment method of WinNonLin 8.0 software was used to calculate the pharmacokinetic parameters. These mainly include kinetic parameters Tmax, T1/2, Cmax, AUC0-24h etc. Column: ACQUITY UPLC BEH C18 (2.1 mm×50 mm, 1.7 m); column temperature 40° C.; mobile phase A is water (0.1% formic acid), mobile phase B is acetonitrile, flow rate is 0.350 mL/min, gradient elution is adopted, the elution gradient is 0.50 min: 10% B; 1.50 min: 90% B; 2.50 min: 90% B; 2.51 min: 10% B; 3.50 min: stop. Injection volume: 1 μL.
(§2) Animals: 3 male SD rats with a weight range of 200-220 g were purchased and kept in the laboratory of the Experimental Animal Center for 2 days and then used. They were fasted for 12 hours predose and 4 hours after dosing. Drinking water was free during the test. After the rats were gavage, blood samples were taken according to the established time point.
(§3) Solvent: 0.4% ethanol+0.4% Tween80+99.2% (0.5% methylcellulose M450). Preparation of the solution for intragastrical administration: the compounds were accurately weighed and added to the solvent, and ultrasound was used at room temperature for 5 minutes to completely dissolve the drug, and a 0.3 mg/mL medicinal solution was prepared.
(§4) Pharmaceutical samples: Generally, multiple samples with similar structures (with a molecular weight difference of more than 2 units) are taken, accurately weighed, and administered together (cassette PK). In this way, multiple compounds can be screened at the same time and their oral absorption rates can be compared. A single administration was also used to study the pharmacokinetics of the drug sample in rats.
(§5) After intragastrical administration, blood was taken from the orbit at 0.25, 0.5, 1, 2, 4, 8, 10 and 24 hours. Then 50 μL of the plasma sample was taken and added 200 μL of acetonitrile (including internal standard control verapamil 2 ng/mL), vortexed for 3 min and centrifuged at 20000 rcf, 4° C. for 10 min. The supernatant plasma was used for LC-MS/MS analysis.
(§6) The compounds were accurately weighed to prepare different concentrations, and quantitative analysis on mass spectrometry was performed to establish a standard curve, and then the concentration of the above-mentioned compound in the plasma was tested to obtain its concentration at different time points. All measurement data were collected and processed by relevant software, and the statistical moment method was used to calculate the pharmacokinetic parameters (mainly including kinetic parameters Tmax, T1/2, Cmax, AUC0-24h etc).

HCC1954 = test: Inhibition of proliferation of breast cancer cell line HCC1954 (CellTiter Glo); assay type: cell-based; conditions: HCC1954 cells, 96 hours
KIF18A = KIF18A (Homo sapiens (Human), UniProt Q8NI77); test: Inhibition of KIF18A enzyme activity (ADP-Glo); assay type: biochemical; conditions: 60 min at 25° C.
KIF18A, sequence (Q8NI77 whole entry): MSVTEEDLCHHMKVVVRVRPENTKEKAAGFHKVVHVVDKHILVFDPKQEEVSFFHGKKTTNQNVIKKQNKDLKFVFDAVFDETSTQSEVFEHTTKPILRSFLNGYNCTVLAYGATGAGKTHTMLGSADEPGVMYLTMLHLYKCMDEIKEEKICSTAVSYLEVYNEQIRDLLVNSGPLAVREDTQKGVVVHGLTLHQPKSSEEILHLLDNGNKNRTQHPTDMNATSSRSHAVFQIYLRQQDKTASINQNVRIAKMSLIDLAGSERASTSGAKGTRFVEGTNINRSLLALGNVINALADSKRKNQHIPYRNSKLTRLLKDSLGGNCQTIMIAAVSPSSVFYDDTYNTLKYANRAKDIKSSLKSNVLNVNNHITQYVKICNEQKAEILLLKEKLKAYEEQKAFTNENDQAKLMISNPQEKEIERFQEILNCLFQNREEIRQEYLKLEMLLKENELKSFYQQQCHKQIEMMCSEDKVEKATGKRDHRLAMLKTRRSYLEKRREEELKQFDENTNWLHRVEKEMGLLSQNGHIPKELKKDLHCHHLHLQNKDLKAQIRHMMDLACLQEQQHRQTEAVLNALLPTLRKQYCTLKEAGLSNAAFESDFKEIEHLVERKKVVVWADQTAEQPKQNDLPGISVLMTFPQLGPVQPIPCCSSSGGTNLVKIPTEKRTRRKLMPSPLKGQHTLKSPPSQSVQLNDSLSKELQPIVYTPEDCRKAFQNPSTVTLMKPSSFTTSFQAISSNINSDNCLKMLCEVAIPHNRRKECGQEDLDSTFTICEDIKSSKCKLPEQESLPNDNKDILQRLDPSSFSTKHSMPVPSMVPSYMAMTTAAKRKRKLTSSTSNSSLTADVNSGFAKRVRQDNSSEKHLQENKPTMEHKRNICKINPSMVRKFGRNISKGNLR
Procedure: The ADP-Glo method was used to test the enzymatic activity of KIF18A. The compound was diluted 3-fold with DMSO at a starting concentration of 3000 nM, for a total of ten concentrations, and tested in duplicate. Echo was used to transfer 25 nL of the diluted compound to a 384-well plate, and 2.5 μL of enzyme working solution was added. Plate was centrifuged at 1000 rpm for 1 min, and incubated at 25° C. for 10 min. 2.5 μL of ATP and substrate solution was added to start the reaction, and plate was incubated at 25° C. for 60 min. 4 μL of ADP-Glo solution was added to the 384-well plate, and plate was incubated at 25° C. for 40 min. 8 μL of detection solution was added and incubated at 25° C. for 40 min, and BMG was used to read the […] value. Inhibition rate was calculate according to the following formula: Inhibition rate (%)=(DMSO well−compound well)/(DMSO well−blank control well)×100%. The IC50 value of each compound was analyzed using the nonlinear regression method of XLFit 5.5.0 software. The formula is: Y=Bottom+(Top−Bottom)/(1+10^((Log IC50−X)*HillSlope)).

[2] = rat, in vivo, po, 3 mg/kg
Procedure: as §1, §2, §3, §4, §5, §6

[3] = Homo sapiens, OVCAR-3 cells, 96 hours, CellTiter Glo
[4] = Homo sapiens, HCC1806 cells, 96 hours, CellTiter Glo
[5] = male, SD, rat, plasma, po, 3 mg/kg

## CP(=O)(c1cccc(NC(=O)c2ccc(NCCO)nc2N2CCC3(CC2)CC3)c1)C1CCCC1 (stereo not shown) [Compound 46]
OVCAR-3; [3]
  IC50: < 1500 nM

## C[C@@H]1CN(c2cccc(NC(=O)c3ccc(NS(=O)(=O)C4(CN5CCC5)CC4)cc3N3CCC4(CC3)CC4)n2)CCO1 [Compound 30]
OVCAR-3; [3]
  IC50: < 500 nM
HCC1806; [4]
  IC50: < 1000 nM

## C[C@@H]1CN(c2cccc(NC(=O)c3ccc(NS(=O)(=O)C4(CN5CC(O)C5)CC4)cc3N3CCC4(CC3)CC4)n2)CCO1 [Compound 32]
OVCAR-3; [3]
  IC50: < 1500 nM
HCC1806; [4]
  IC50: < 1000 nM

## Cc1cc(NC(=O)c2ccc(NS(=O)(=O)C(C)CO)cc2N2CCC(=C(F)F)CC2)nc(N2CCC(F)(F)CC2)n1 (stereo not shown) [Compound 52]
OVCAR-3; [3]
  IC50: < 50 nM
HCC1806; [4]
  IC50: < 100 nM

## Cc1cc(NC(=O)c2ccc(NS(=O)(=O)[C@H](C)CO)cc2N2CCC(=C(F)F)CC2)nc(N2CCC(F)(F)CC2)c1 [Compound 82]
[1]; [5]
  AUC(0-t): 4520 ng·h/mL
  Cmax: 363 ng/mL
  Tmax: 4.67 h
  half-life: 5.01 h

## Cc1cc(NC(=O)c2ccc(NS(=O)(=O)C3(CO)CC3)cc2N2CCC(=C(F)F)CC2)nc(N2CCC(F)(F)CC2)n1 [Compound 51]
OVCAR-3; [3]
  IC50: < 50 nM
HCC1954; Homo sapiens
  IC50: < 100 nM
HCC1806; [4]
  IC50: < 200 nM
[1]; [5]
  AUC(0-t): 424 ng·h/mL
  Cmax: 43.3 ng/mL
  Tmax: 4.67 h
  half-life: 6.68 h

## Cc1cc(NC(=O)c2ccc(NS(=O)(=O)C3(CO)CC3)cc2N2CCC3(CC2)CC3)nc(N2CCC(=C(F)F)CC2)n1 [Compound 13]
OVCAR-3; [3]
  IC50: < 500 nM
HCC1806; [4]
  IC50: < 500 nM

## Cc1cc(NC(=O)c2ccc(NS(=O)(=O)C(F)CO)cc2N2CCC(=C(F)F)CC2)nc(N2CCC(F)(F)CC2)n1 (stereo not shown) [Compound 72]
OVCAR-3; [3]
  IC50: < 200 nM
HCC1806; [4]
  IC50: < 500 nM

## Cc1cc(NC(=O)c2ccc(NS(=O)(=O)CCO)cc2N2CCC(=C(F)F)CC2)nc(N2CCC(F)(F)CC2)c1F [Compound 79]
OVCAR-3; [3]
  IC50: < 50 nM
[1]; [5]
  AUC(0-t): 2240 ng·h/mL
  Cmax: 160 ng/mL
  Tmax: 5.33 h
  half-life: 7.61 h

## C=C(C)C1CCN(c2cc(NS(=O)(=O)C3(C)CC3)ccc2C(=O)Nc2cccc(S(=O)(=O)NC(C)(C)C)c2)CC1 [Compound 36]
OVCAR-3; [3]
  IC50: < 200 nM

## Cc1cc(NC(=O)c2ccc(NS(=O)(=O)CCO)cc2N2CCC(=C(F)F)CC2)nc(N2CCC(F)(F)CC2)c1 [Compound 48]
OVCAR-3
  IC50: < 50 nM
HCC1954
  IC50: < 50 nM
HCC1806
  IC50: < 50 nM
KIF18A
  IC50: < 50 nM
[2]
  AUC0-24 h: 1724.65 ng·h/mL
  Cmax: 153.57 ng/mL
  T1/2: 4.91 h
  Tmax: 4.00 h

## CC(C)(C)NS(=O)(=O)c1cccc(NC(=O)c2ccc(S(=O)(=O)C3(C)COC3)cc2N2CCC(=C(F)F)CC2)c1 [Compound 67]
OVCAR-3; [3]
  IC50: < 500 nM
HCC1806; [4]
  IC50: < 1000 nM

## CC(C)(C)NS(=O)(=O)c1cccc(NC(=O)c2ccc(S(=O)(=O)C3COC3)cc2N2CCC(=C(F)F)CC2)c1 [Compound 73]
OVCAR-3; [3]
  IC50: < 200 nM
HCC1806; [4]
  IC50: < 500 nM

## O=C(Nc1cccc(N2CCC(F)(F)CC2)n1)c1ccc(NS(=O)(=O)CCO)cc1N1CCC(=C(F)F)CC1 [Compound 40]
OVCAR-3; [3]
  IC50: < 50 nM

## CC(C)(C)NS(=O)(=O)c1cccc(NC(=O)c2ccc(NS(=O)(=O)CCO)cc2N2CCC(=C(F)F)CC2)c1 [Compound 41]
OVCAR-3; [3]
  IC50: < 50 nM

## Cc1cc(NC(=O)c2ccc(NS(=O)(=O)C(C)(C)CO)cc2N2CCC(=C(F)F)CC2)nc(N2CCC(F)(F)CC2)n1 [Compound 60]
OVCAR-3
  IC50: < 50 nM
HCC1954
  IC50: < 75 nM
HCC1806
  IC50: < 200 nM
KIF18A
  IC50: < 150 nM
[1]; male SD rats, oral 3 mg/kg
  AUC0-24 h: 1330.47 ng·h/mL
  Cmax: 90.70 ng/mL
  T1/2: 7.47 h
  Tmax: 6.67 h

## Cc1cc(NC(=O)c2ccc(NS(=O)(=O)CCO)cc2N2CCC(=C(F)F)CC2)nc(N2CCC(F)(F)CC2)n1 [Compound 33]
OVCAR-3
  IC50: < 75 nM
HCC1954
  IC50: < 75 nM
HCC1806
  IC50: < 200 nM
KIF18A
  IC50: < 50 nM
[2]
  AUC0-24 h: 10273.88 ng·h/mL
  Cmax: 717.6 ng/mL
  T1/2: 7.05 h
  Tmax: 8.00 h

## Cc1cc(NC(=O)c2ccc(NS(=O)(=O)C3CC(O)C3)cc2N2CCC3(CC2)CC3)nc(N2CCC(F)(F)CC2)n1 (stereo not shown) [Compound 47]
OVCAR-3; [3]
  IC50: < 50 nM
HCC1954; Homo sapiens
  IC50: < 75 nM

## Cc1cc(NC(=O)c2ccc(NS(=O)(=O)C(C)CO)cc2N2CCC3(CC2)CC3)nc(N2CCC(=C(F)F)CC2)n1 (stereo not shown) [Compound 3C]
OVCAR-3; [3]
  IC50: < 200 nM
HCC1806; [4]
  IC50: < 500 nM

## CC(C)=C1CCN(c2nc(NCCO)ccc2C(=O)Nc2cccc(S(=O)(=O)C3CCCC3)c2)CC1 [Compound 44]
OVCAR-3; [3]
  IC50: < 2000 nM

## Cc1cc(NC(=O)c2ccc(NS(=O)(=O)CCO)nc2N2CCC(=C(F)F)CC2)nc(N2CCC(F)(F)CC2)n1 [Compound 65]
OVCAR-3; [3]
  IC50: < 500 nM
HCC1806; [4]
  IC50: < 1000 nM

## O=C(Nc1cccc(N2CC(F)(F)C2)n1)c1ccc(NS(=O)(=O)C2(CN3CCC3)CC2)cc1N1CCC2(CC1)CC2 [Compound 29]
OVCAR-3; Homo sapiens, OVCAR-3, 96 h
  IC50: < 500 nM
HCC1806; Homo sapiens, HCC1806, 96 h
  IC50: < 1000 nM

## C[C@@H]1CN(c2cccc(NC(=O)c3ccc(NS(=O)(=O)CCO)cc3N3CCC(=C(F)F)CC3)n2)CCO1 [Compound 53]
OVCAR-3; [3]
  IC50: < 50 nM
HCC1954; Homo sapiens
  IC50: < 50 nM

## CC(C)(CO)Nc1ccc(C(=O)Nc2cccc(S(=O)(=O)C3CCCC3)c2)c(N2CCC(=C(F)F)CC2)n1 [Compound 59]
OVCAR-3; [3]
  IC50: < 75 nM
HCC1954; Homo sapiens
  IC50: < 75 nM
HCC1806; [4]
  IC50: < 200 nM

## CC(C)(C)NS(=O)(=O)c1cccc(NC(=O)c2ccc(NC(C)(C)CO)nc2N2CCC(=C(F)F)CC2)c1 [Compound 62]
OVCAR-3; [3]
  IC50: < 200 nM
HCC1806; [4]
  IC50: < 500 nM

## Cc1cc(NC(=O)c2ccc(NS(=O)(=O)[C@@H](C)CO)cc2N2CCC(=C(F)F)CC2)nc(N2CCC(F)(F)CC2)n1 [Compound 69]
OVCAR-3; [3]
  IC50: < 100 nM
HCC1954; Homo sapiens
  IC50: < 200 nM
HCC1806; [4]
  IC50: < 200 nM

## CC(C)=C1CCN(c2cc(NS(=O)(=O)CCO)ccc2C(=O)Nc2cc(C)nc(N3CCC(F)(F)CC3)n2)CC1 [Compound 35]
OVCAR-3; [3]
  IC50: < 500 nM

## Cc1cc(NC(=O)c2ccc(NS(=O)(=O)[C@H](C)CO)cc2N2CCC(=C(F)F)CC2)nc(N2CCC(F)(F)CC2)n1 [Compound 68]
OVCAR-3; [3]
  IC50: < 50 nM
HCC1954; Homo sapiens
  IC50: < 50 nM
HCC1806; [4]
  IC50: < 100 nM
[1]; [5]
  AUC(0-t): 3330 ng·h/mL
  Cmax: 227 ng/mL
  Tmax: 6.67 h
  half-life: 7.18 h

## Cc1cc(NC(=O)c2ccc(NS(=O)(=O)C3(CN4CC(O)C4)CC3)cc2N2CCC3(CC2)CC3)nc(N2CCC(F)(F)CC2)n1 [Compound 20]
OVCAR-3; [3]
  IC50: < 1000 nM
HCC1806; [4]
  IC50: < 1000 nM

## CC(C)(C)NS(=O)(=O)c1cccc(NC(=O)c2ccc(NS(=O)(=O)C3(C)CC3)cc2N2CCC(=C(F)F)CC2)c1 [Compound 39]
OVCAR-3; [3]
  IC50: < 50 nM

## Cc1nc(N2CCC(F)(F)CC2)nc(NC(=O)c2ccc(NS(=O)(=O)CCO)cc2N2CCC(=C(F)F)CC2)c1F [Compound 74]
OVCAR-3; [3]
  IC50: < 1000 nM
HCC1954; Homo sapiens
  IC50: < 1000 nM

## CC(C)(C)NS(=O)(=O)c1cccc(NC(=O)c2ccc(S(=O)(=O)NC(C)(C)C)cc2N2CCC(=C(F)F)CC2)c1 [Compound 63]
OVCAR-3; [3]
  IC50: < 50 nM
HCC1954; Homo sapiens
  IC50: < 50 nM
HCC1806; [4]
  IC50: < 75 nM

## Cc1cc(NC(=O)c2ccc(NS(=O)(=O)CCO)cc2N2CCC(=C(F)F)CC2)cc(N2CCC(F)(F)CC2)c1 [Compound 56]
OVCAR-3
  IC50: < 50 nM
HCC1954
  IC50: < 75 nM
HCC1806
  IC50: < 100 nM
KIF18A
  IC50: < 50 nM
[1]; male SD rats, oral 3 mg/kg
  AUC0-24 h: 2051.53 ng·h/mL
  Cmax: 175.28 ng/mL
  T1/2: 3.83 h
  Tmax: 4.00 h

## N#Cc1ccc(NC(=O)c2ccc(NS(=O)(=O)CCO)cc2N2CCC(=C(F)F)CC2)nc1N1CCC(F)(F)CC1 [Compound 77]
OVCAR-3; [3]
  IC50: < 50 nM

## CCc1cc(NC(=O)c2ccc(NS(=O)(=O)CCO)cc2N2CCC(=C(F)F)CC2)nc(N2CCC(F)(F)CC2)n1 [Compound 75]
OVCAR-3; [3]
  IC50: < 200 nM
